Measured values taken from US9242987B2, “Heterocyclyl pyrazolopyrimidine analogues as JAK inhibitors” (Cellzome Limited, priority 2009, dated 2016).
Structures can show the parent of a compound that is named as a salt.

How the values were obtained:
JAK2 = molecular target: T1, JAK2 (Homo sapiens, UniProt O60674); assay: Kinobeads assay, JAK2; assay type: binding; conditions: mixed Molt4/Ramos cell lysate, dot blot detection
T1 construct: endogenous in cells; host or cells: Mixed Molt4/Ramos lysate (1:2)
Summary of the method: (§1)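 Competition pulldown: compound dilution series incubated 3 h in cold room with immobilized aminopyrido-pyrimidine beads and mixed Molt4/Ramos lysate (1:2, 10 mg/mL protein) in DP buffer pH 7.4 with NP40. Bead-bound JAK2/JAK3 eluted, quantified by antibody dot blot with infrared detection; IC50 from dose-response curves.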

JAK3 = molecular target: T2, JAK3 (Homo sapiens, UniProt P52333); assay: Kinobeads assay, JAK3; assay type: binding; conditions: mixed Molt4/Ramos cell lysate, dot blot detection
T2 construct: endogenous in cells; host or cells: Mixed Molt4/Ramos lysate (1:2)
T2 sequence (P52333 1-1124): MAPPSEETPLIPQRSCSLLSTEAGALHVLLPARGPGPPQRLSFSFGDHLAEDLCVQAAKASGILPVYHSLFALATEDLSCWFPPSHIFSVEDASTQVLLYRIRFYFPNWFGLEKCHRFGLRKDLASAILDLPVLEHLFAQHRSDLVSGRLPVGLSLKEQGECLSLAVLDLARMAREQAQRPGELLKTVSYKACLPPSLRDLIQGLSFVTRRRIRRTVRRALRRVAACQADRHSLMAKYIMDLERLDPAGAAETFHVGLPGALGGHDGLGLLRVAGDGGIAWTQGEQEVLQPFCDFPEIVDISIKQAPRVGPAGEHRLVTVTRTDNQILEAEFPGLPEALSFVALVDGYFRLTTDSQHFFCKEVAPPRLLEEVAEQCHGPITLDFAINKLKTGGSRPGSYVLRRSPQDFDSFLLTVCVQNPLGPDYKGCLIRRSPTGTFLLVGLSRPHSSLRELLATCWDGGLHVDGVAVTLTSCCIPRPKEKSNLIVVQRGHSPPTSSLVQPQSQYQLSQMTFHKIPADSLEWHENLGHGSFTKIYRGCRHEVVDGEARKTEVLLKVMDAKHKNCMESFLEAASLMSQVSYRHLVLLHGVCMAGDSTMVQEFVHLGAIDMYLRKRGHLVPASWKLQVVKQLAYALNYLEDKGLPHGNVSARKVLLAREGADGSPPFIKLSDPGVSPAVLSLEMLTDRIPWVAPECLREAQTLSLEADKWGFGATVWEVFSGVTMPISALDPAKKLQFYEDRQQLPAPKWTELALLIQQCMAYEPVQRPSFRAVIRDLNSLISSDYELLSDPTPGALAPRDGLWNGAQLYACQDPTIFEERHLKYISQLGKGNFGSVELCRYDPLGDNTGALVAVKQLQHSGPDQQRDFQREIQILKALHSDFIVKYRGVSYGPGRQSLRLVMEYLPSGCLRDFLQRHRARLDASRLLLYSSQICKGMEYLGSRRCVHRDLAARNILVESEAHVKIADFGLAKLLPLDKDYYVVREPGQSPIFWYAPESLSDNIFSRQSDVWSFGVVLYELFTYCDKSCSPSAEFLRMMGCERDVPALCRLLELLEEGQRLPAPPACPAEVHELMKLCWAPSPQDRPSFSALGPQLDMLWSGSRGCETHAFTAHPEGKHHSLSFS
Summary of the method: as §1

T1 sequence (O60674 whole entry): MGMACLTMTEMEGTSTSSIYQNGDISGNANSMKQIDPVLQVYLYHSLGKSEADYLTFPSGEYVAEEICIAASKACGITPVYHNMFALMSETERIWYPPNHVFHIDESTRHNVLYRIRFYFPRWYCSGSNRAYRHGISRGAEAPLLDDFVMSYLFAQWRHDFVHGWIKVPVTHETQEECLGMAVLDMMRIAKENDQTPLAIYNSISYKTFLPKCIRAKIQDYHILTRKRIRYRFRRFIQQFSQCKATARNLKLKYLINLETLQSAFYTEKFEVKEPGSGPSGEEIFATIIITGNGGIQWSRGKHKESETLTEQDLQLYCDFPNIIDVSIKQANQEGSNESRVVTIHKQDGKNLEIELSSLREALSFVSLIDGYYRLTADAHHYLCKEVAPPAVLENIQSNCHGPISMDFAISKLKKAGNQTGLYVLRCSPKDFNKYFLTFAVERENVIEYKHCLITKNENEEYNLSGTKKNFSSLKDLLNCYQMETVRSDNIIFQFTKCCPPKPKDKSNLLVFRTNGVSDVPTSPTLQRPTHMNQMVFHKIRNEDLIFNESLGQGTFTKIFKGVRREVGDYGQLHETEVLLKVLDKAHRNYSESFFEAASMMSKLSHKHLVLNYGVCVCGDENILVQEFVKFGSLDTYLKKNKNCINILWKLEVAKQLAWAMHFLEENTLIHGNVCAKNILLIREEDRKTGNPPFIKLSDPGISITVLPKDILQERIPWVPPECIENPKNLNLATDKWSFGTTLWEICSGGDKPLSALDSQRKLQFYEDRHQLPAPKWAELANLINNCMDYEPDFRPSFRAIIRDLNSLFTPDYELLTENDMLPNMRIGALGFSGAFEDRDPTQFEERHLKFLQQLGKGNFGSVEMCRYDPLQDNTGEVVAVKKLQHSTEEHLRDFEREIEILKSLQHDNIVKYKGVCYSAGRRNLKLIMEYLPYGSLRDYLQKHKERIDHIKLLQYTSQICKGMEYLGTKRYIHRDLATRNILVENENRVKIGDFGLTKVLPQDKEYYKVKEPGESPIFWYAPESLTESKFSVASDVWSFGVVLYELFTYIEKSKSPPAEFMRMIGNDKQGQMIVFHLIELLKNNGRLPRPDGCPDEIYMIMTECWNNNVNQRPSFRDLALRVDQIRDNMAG

| IC50 (JAK2) | IC50 (JAK3) | SMILES |
| --- | --- | --- |
| 100 to 1000 nM | < 100 nM | CS(=O)(=O)Nc1ccccc1Cn1ncc2cnc(Nc3cnn(CC(F)F)c3)nc21 [Example 131, N-(2-((6-((1-(2,2-Difluoroethyl)-1H-pyrazol-4-yl)amino)-1H-pyrazolo[3,4-d]pyrimidin-1-yl)methyl)phenyl)methanesulfonamide hydrochloride] |
| ≥ 10000 nM | < 100 nM | COCCOc1cccc(Cn2ncc3cnc(Nc4cnn(C)c4)nc32)c1 [Example 132, 1-(3-(2-Methoxyethoxy)benzyl)-N-(1-methyl-1H-pyrazol-4-yl)-1H-pyrazolo[3,4-d]pyrimidin-6-amine] |
| 1000 to 10000 nM | < 100 nM | CNC(=O)Cn1cc(Nc2ncc3cnn(Cc4ccccc4)c3n2)cn1 [Example 133, 2-(4-((1-Benzyl-1H-pyrazolo[3,4-d]pyrimidin-6-yl)amino)-1H-pyrazol-1-yl)-N-methylacetamide] |
| 1000 to 10000 nM | < 100 nM | Cn1cc(Nc2ncc3cnn(Cc4ccccc4NS(=O)(=O)CC(F)(F)F)c3n2)cn1 [Example 134] |
| 1000 to 10000 nM | 100 to 1000 nM | Cn1cc(Nc2ncc3cnn(-c4ccc(C(N)=O)cc4)c3n2)cn1 [Example 135, 4-(6-((1-Methyl-1H-pyrazol-4-yl)amino)-1H-pyrazolo[3,4-d]pyrimidin-1-yl)benzamide] |
| 1000 to 10000 nM | 100 to 1000 nM | CNC(=O)c1ccc(-n2ncc3cnc(Nc4cnn(C)c4)nc32)cc1 [Example 136, N-methyl-4-(6-((1-methyl-1H-pyrazol-4-yl)amino)-1H-pyrazolo[3,4-d]pyrimidin-1-yl)benzamide] |
| 100 to 1000 nM | < 100 nM | Cn1cc(Nc2ncc3cnn(-c4ccc(C(=O)N5CCOCC5)cc4)c3n2)cn1 [Example 137, (4-(6-((1-Methyl-1H-pyrazol-4-yl)amino)-1H-pyrazolo[3,4-d]pyrimidin-1-yl)phenyl)(morpholino)methanone] |
| 1000 to 10000 nM | 100 to 1000 nM | Cn1cc(Nc2ncc3cnn(-c4ccc(S(N)(=O)=O)c(F)c4)c3n2)cn1 [Example 138, 2-Fluoro-4-(6-((1-methyl-1H-pyrazol-4-yl)amino)-1H-pyrazolo[3,4-d]pyrimidin-1-yl)benzenesulfonamide] |
| 1000 to 10000 nM | 100 to 1000 nM | Cn1cc(Nc2ncc3cnn(-c4ccc(S(=O)(=O)NCCO)cc4)c3n2)cn1 [Example 139, N-(2-Hydroxyethyl)-4-(6-((1-methyl-1H-pyrazol-4-yl)amino)-1H-pyrazolo[3,4-d]pyrimidin-1-yl)benzenesulfonamide] |
| 1000 to 10000 nM | < 100 nM | Cn1cc(Nc2ncc3cnn(Cc4cccc(NS(C)(=O)=O)c4)c3n2)cn1 [Example 140, N-(3-((6-((1-Methyl-1H-pyrazol-4-yl)amino)-1H-pyrazolo[3,4-d]pyrimidin-1-yl)methyl)phenyl)methanesulfonamide] |
| ≥ 10000 nM | 100 to 1000 nM | CC(C)S(=O)(=O)Nc1cccc(Cn2ncc3cnc(Nc4cnn(C)c4)nc32)c1 [Example 141, N-(3-((6-((1-Methyl-1H-pyrazol-4-yl)amino)-1H-pyrazolo[3,4-d]pyrimidin-1-yl)methyl)phenyl)propane-2-sulfonamide] |
| 100 to 1000 nM | < 100 nM | Cn1cc(Nc2ncc3cnn(Cc4c(F)cccc4NS(C)(=O)=O)c3n2)cn1 [Example 142] |
| 1000 to 10000 nM | < 100 nM | Fc1ccccc1Cn1ncc2cnc(Nc3cnn(CCN4CCCCC4)c3)nc21 [Example 143, 1-(2-Fluorobenzyl)-N-(1-(2-(piperidin-1-yl)ethyl)-1H-pyrazol-4-yl)-1H-pyrazolo[3,4-d]pyrimidin-6-amine] |
| 100 to 1000 nM | < 100 nM | Fc1ccccc1Cn1ncc2cnc(Nc3cnn(CCCN4CCCCC4)c3)nc21 [Example 144, 1-(2-Fluorobenzyl)-N-(1-(3-(piperidin-1-yl)propyl)-1H-pyrazol-4-yl)-1H-pyrazolo[3,4-d]pyrimidin-6-amine] |
| 100 to 1000 nM | < 100 nM | Fc1ccccc1Cn1ncc2cnc(Nc3cnn(CCCN4CCOCC4)c3)nc21 [Example 145, 1-(2-Fluorobenzyl)-N-(1-(3-morpholinopropyl)-1H-pyrazol-4-yl)-1H-pyrazolo[3,4-d]pyrimidin-6-amine] |
| 1000 to 10000 nM | 100 to 1000 nM | Cn1cc(Nc2ncc3cnn(-c4cccc(C(=O)N5CCOCC5)c4)c3n2)cn1 [Example 146, (3-(6-((1-Methyl-1H-pyrazol-4-yl)amino)-1H-pyrazolo[3,4-d]pyrimidin-1-yl)phenyl)(morpholino)methanone] |
| ≥ 10000 nM | 100 to 1000 nM | Cn1cc(Nc2ncc3cnn(-c4cccc(C(=O)NCCO)c4)c3n2)cn1 [Example 147, N-(2-Hydroxyethyl)-3-(6-((1-methyl-1H-pyrazol-4-yl)amino)-1H-pyrazolo[3,4-d]pyrimidin-1-yl)benzamide] |
| 1000 to 10000 nM | 100 to 1000 nM | Cn1cc(Nc2ncc3cnn(-c4ccc(C(=O)NCCO)cc4)c3n2)cn1 [Example 148, N-(2-Hydroxyethyl)-4-(6-((1-methyl-1H-pyrazol-4-yl)amino)-1H-pyrazolo[3,4-d]pyrimidin-1-yl)benzamide] |
| 1000 to 10000 nM | 100 to 1000 nM | CN1CCN(C(=O)c2ccc(-n3ncc4cnc(Nc5cnn(C)c5)nc43)cc2)CC1 [Example 149, (4-(6-((1-Methyl-1H-pyrazol-4-yl)amino)-1H-pyrazolo[3,4-d]pyrimidin-1-yl)phenyl)(4-methylpiperazin-1-yl)methanone] |
| 1000 to 10000 nM | < 100 nM | Cc1nn(CC(F)F)cc1Nc1ncc2cnn(Cc3cc(F)ccc3F)c2n1 [Example 150, 1-(2,5-Difluorobenzyl)-N-(1-(2,2-difluoroethyl)-3-methyl-1H-pyrazol-4-yl)-1H-pyrazolo[3,4-d]pyrimidin-6-amine] |
| 100 to 1000 nM | < 100 nM | Cc1nn(CC(F)F)cc1Nc1ncc2cnn(Cc3cc(F)ccc3C#N)c2n1 [Example 151, 2-((6-((1-(2,2-Difluoroethyl)-3-methyl-1H-pyrazol-4-yl)amino)-1H-pyrazolo[3,4-d]pyrimidin-1-yl)methyl)-4-fluorobenzonitrile] |
| 1000 to 10000 nM | < 100 nM | COc1nn(CC(F)F)cc1Nc1ncc2cnn(Cc3cc(F)ccc3F)c2n1 [Example 152, 1-(2,5-Difluorobenzyl)-N-(1-(2,2-difluoroethyl)-3-methoxy-1H-pyrazol-4-yl)-1H-pyrazolo[3,4-d]pyrimidin-6-amine] |
| 100 to 1000 nM | < 100 nM | COc1nn(CC(F)F)cc1Nc1ncc2cnn(Cc3cc(F)ccc3C#N)c2n1 [Example 153, 2-((6-((1-(2,2-Difluoroethyl)-3-methoxy-1H-pyrazol-4-yl)amino)-1H-pyrazolo[3,4-d]pyrimidin-1-yl)methyl)-4-fluorobenzonitrile] |
| 1000 to 10000 nM | 100 to 1000 nM | Cc1c(F)cccc1Cn1ncc2cnc(Nc3cnn(CC(F)F)c3)nc21 [Example 154, N-(1-(2,2-Difluoroethyl)-1H-pyrazol-4-yl)-1-(3-fluoro-2-methylbenzyl)-1H-pyrazolo[3,4-d]pyrimidin-6-amine] |
| 1000 to 10000 nM | < 100 nM | Fc1cccc(Cn2ncc3cnc(Nc4cnn(CC(F)F)c4)nc32)c1F [Example 155, 1-(2,3-Difluorobenzyl)-N-(1-(2,2-difluoroethyl)-1H-pyrazol-4-yl)-1H-pyrazolo[3,4-d]pyrimidin-6-amine] |
